Laboratory results as given in ChEMBL document CHEMBL3792284, “Synthesis of triazoloquinazolinone based compounds as tubulin polymerization inhibitors and vascular disrupting agents” (Eur J Med Chem, 2016).

Key:
Tubulin = Tubulin (Bos taurus, UniProt Q6B856+Q862L2+Q862F3); assay: Inhibition of bovine tubulin polymerization after 1 hr by fluorescence spectrometry; type: protein assay
HT-29 [1] = assay: Antiproliferative activity against human HT-29 cells at 10 uM after 72 hrs by MTS assay; type: functional; settings: HT-29, 72 h
[2] = Growth inhibition of human HL-60(TB) cells after 48 hrs by sulforhodamine B assay; type: functional; settings: HL-60, 48 h
K562 [3] = assay: Growth inhibition of human K562 cells after 48 hrs by sulforhodamine B assay; type: functional; settings: K562, 48 h
SR [4] = assay: Growth inhibition of human SR cells after 48 hrs by sulforhodamine B assay; type: functional
A549 [5] = assay: Growth inhibition of human A549/ATCC cells after 48 hrs by sulforhodamine B assay; type: functional; settings: A549, 48 h
[6] = Growth inhibition of human HOP62 cells after 48 hrs by sulforhodamine B assay; type: functional; settings: HOP-62, 48 h
NCI-H522 [7] = assay: Growth inhibition of human NCI-H522 cells after 48 hrs by sulforhodamine B assay; type: functional; settings: NCI-H522, 48 h
[8] = Growth inhibition of human COLO205 cells after 48 hrs by sulforhodamine B assay; type: functional; settings: COLO 205, 48 h
[9] = Growth inhibition of human HCT116 cells after 48 hrs by sulforhodamine B assay; type: functional; settings: HCT-116, 48 h
[10] = Growth inhibition of human HCT15 cells after 48 hrs by sulforhodamine B assay; type: functional; settings: HCT-15, 48 h
HT-29 [11] = assay: Growth inhibition of human HT-29 cells after 48 hrs by sulforhodamine B assay; type: functional; settings: HT-29, 48 h
[12] = Growth inhibition of human SF295 cells after 48 hrs by sulforhodamine B assay; type: functional; settings: SF-295, 48 h
[13] = Growth inhibition of human SNB75 cells after 48 hrs by sulforhodamine B assay; type: functional; settings: SNB-75, 48 h
U-251 [14] = assay: Growth inhibition of human U251 cells after 48 hrs by sulforhodamine B assay; type: functional; settings: U-251, 48 h
SK-MEL-5 [15] = assay: Growth inhibition of human SK-MEL-5 cells after 48 hrs by sulforhodamine B assay; type: functional; settings: SK-MEL-5, 48 h
[16] = Growth inhibition of human OVCAR3 cells after 48 hrs by sulforhodamine B assay; type: functional; settings: OVCAR-3, 48 h
A498 [17] = assay: Growth inhibition of human A498 cells after 48 hrs by sulforhodamine B assay; type: functional; settings: A498, 48 h
[18] = Growth inhibition of human Caki1 cells after 48 hrs by sulforhodamine B assay; type: functional; settings: CAKI-1, 48 h
[19] = Growth inhibition of human PC3 cells after 48 hrs by sulforhodamine B assay; type: functional; settings: PC-3, 48 h
MDA-MB-435 [20] = assay: Growth inhibition of human MDA-MB-435 cells after 72 hrs by MTT assay; type: functional; settings: MDA-MB-435, 72 h
MCF7 [21] = assay: Growth inhibition of human MCF7 cells after 3 days by MTT assay; type: functional; settings: MCF7, 72 h
[22] = Growth inhibition of human HL-60(TB) cells at 10 uM after 48 hrs by sulforhodamine B assay; type: functional; settings: HL-60, 48 h, read-out: GI
K562 [23] = assay: Growth inhibition of human K562 cells at 10 uM after 48 hrs by sulforhodamine B assay; type: functional; settings: K562, 48 h, read-out: GI
SR [24] = assay: Growth inhibition of human SR cells at 10 uM after 48 hrs by sulforhodamine B assay; type: functional; settings: read-out: GI
A549 [25] = assay: Growth inhibition of human A549/ATCC cells at 10 uM after 48 hrs by sulforhodamine B assay; type: functional; settings: A549, 48 h, read-out: GI
[26] = Growth inhibition of human HOP62 cells at 10 uM after 48 hrs by sulforhodamine B assay; type: functional; settings: HOP-62, 48 h, read-out: GI
NCI-H522 [27] = assay: Growth inhibition of human NCI-H522 cells at 10 uM after 48 hrs by sulforhodamine B assay; type: functional; settings: NCI-H522, 48 h, read-out: GI
[28] = Growth inhibition of human COLO205 cells at 10 uM after 48 hrs by sulforhodamine B assay; type: functional; settings: COLO 205, 48 h, read-out: GI
[29] = Growth inhibition of human HCT116 cells at 10 uM after 48 hrs by sulforhodamine B assay; type: functional; settings: HCT-116, 48 h, read-out: GI
[30] = Growth inhibition of human HCT15 cells at 10 uM after 48 hrs by sulforhodamine B assay; type: functional; settings: HCT-15, 48 h, read-out: GI
HT-29 [31] = assay: Growth inhibition of human HT-29 cells at 10 uM after 48 hrs by sulforhodamine B assay; type: functional; settings: HT-29, 48 h, read-out: GI
[32] = Growth inhibition of human SF295 cells at 10 uM after 48 hrs by sulforhodamine B assay; type: functional; settings: SF-295, 48 h, read-out: GI
[33] = Growth inhibition of human SNB75 cells at 10 uM after 48 hrs by sulforhodamine B assay; type: functional; settings: SNB-75, 48 h, read-out: GI
U-251 [34] = assay: Growth inhibition of human U251 cells at 10 uM after 48 hrs by sulforhodamine B assay; type: functional; settings: U-251, 48 h, read-out: GI
MDA-MB-435 [35] = assay: Growth inhibition of human MDA-MB-435 cells at 10 uM after 48 hrs by sulforhodamine B assay; type: functional; settings: MDA-MB-435, 48 h, read-out: GI
SK-MEL-5 [36] = assay: Growth inhibition of human SK-MEL-5 cells at 10 uM after 48 hrs by sulforhodamine B assay; type: functional; settings: SK-MEL-5, 48 h, read-out: GI
[37] = Growth inhibition of human OVCAR3 cells at 10 uM after 48 hrs by sulforhodamine B assay; type: functional; settings: OVCAR-3, 48 h, read-out: GI
[38] = Growth inhibition of human NCI-ADR-RES cells at 10 uM after 48 hrs by sulforhodamine B assay; type: functional; settings: read-out: GI
A498 [39] = assay: Growth inhibition of human A498 cells at 10 uM after 48 hrs by sulforhodamine B assay; type: functional; settings: A498, 48 h, read-out: GI
[40] = Growth inhibition of human Caki1 cells at 10 uM after 48 hrs by sulforhodamine B assay; type: functional; settings: CAKI-1, 48 h, read-out: GI
[41] = Growth inhibition of human PC3 cells at 10 uM after 48 hrs by sulforhodamine B assay; type: functional; settings: PC-3, 48 h, read-out: GI
[42] = Growth inhibition of human DU145 cells at 10 uM after 48 hrs by sulforhodamine B assay; type: functional; settings: DU-145, 48 h, read-out: GI
MCF7 [43] = assay: Growth inhibition of human MCF7 cells at 10 uM after 48 hrs by sulforhodamine B assay; type: functional; settings: MCF7, 48 h, read-out: GI
MDA-MB-468 [44] = assay: Growth inhibition of human MDA-MB-468 cells at 10 uM after 48 hrs by sulforhodamine B assay; type: functional; settings: MDA-MB-468, 48 h, read-out: GI
MDA-MB-435 [45] = assay: Growth inhibition of human MDA-MB-435 cells after 48 hrs by sulforhodamine B assay; type: functional; settings: MDA-MB-435, 48 h
[46] = Growth inhibition of human NCI-ADR-RES cells after 48 hrs by sulforhodamine B assay; type: functional
[47] = Growth inhibition of human DU145 cells after 48 hrs by sulforhodamine B assay; type: functional; settings: DU-145, 48 h
MCF7 [48] = assay: Growth inhibition of human MCF7 cells after 48 hrs by sulforhodamine B assay; type: functional; settings: MCF7, 48 h
MDA-MB-468 [49] = assay: Growth inhibition of human MDA-MB-468 cells after 48 hrs by sulforhodamine B assay; type: functional; settings: MDA-MB-468, 48 h
[50] = Cytotoxicity against human HL-60(TB) cells assessed as cell growth at 10 uM after 48 hrs by sulforhodamine B assay; type: functional; settings: HL-60, 48 h, read-out: Activity
MDA-MB-435 [51] = assay: Cytotoxicity against human MDA-MB-435 cells assessed as cell growth at 10 uM after 48 hrs by sulforhodamine B assay; type: functional; settings: MDA-MB-435, 48 h, read-out: Activity
[52] = Cytotoxicity against human COLO205 cells assessed as cell growth at 10 uM after 48 hrs by sulforhodamine B assay; type: functional; settings: COLO 205, 48 h, read-out: Activity
HUVEC = assay: Inhibition of cell invasion of HUVEC at 1 uM after 24 hrs by crystal violet staining based Boyden chamber assay; type: functional; settings: Homo sapiens

## COc1ccc(-c2nnc3[nH]c(=O)c4ccccc4n23)cc1O
Tubulin
  IC50: 4.26 µM
HT-29 [1]
  inhibition at 10 µM: 10%

## COc1cc(-c2nnc3[nH]c(=O)c4ccccc4n23)ccc1O
Tubulin
  IC50: > 10 µM
HT-29 [1]
  inhibition at 10 µM: 0%

## COc1cc(-c2nnc3n(C)c(=O)c4ccccc4n23)cc(OC)c1OC
Tubulin
  IC50: > 10 µM
HT-29 [1]
  inhibition at 10 µM: 0%

## COc1ccc(-c2nnc3[nH]c(=O)c4ccccc4n23)cc1OC
Tubulin
  IC50: > 10 µM
HT-29 [1]
  inhibition at 10 µM: 0%

## COc1cc(-c2nnc3[nH]c(=O)c4ccccc4n23)cc(OC)c1OC
Tubulin
  IC50: > 10 µM
HT-29 [1]
  inhibition at 10 µM: 2%

## COc1ccc(-c2nnc3n(C)c(=O)c4ccccc4n23)cc1OC
Tubulin
  IC50: > 10 µM
HT-29 [1]
  inhibition at 10 µM: 1%

## COc1ccc(-c2nnc3[nH]c(=O)c4ccccc4n23)cc1
Tubulin
  IC50: > 10 µM
HT-29 [1]
  inhibition at 10 µM: 0%

## Cn1c(=O)c2ccccc2n2c(-c3ccc(O)c(O)c3)nnc12
Tubulin
  IC50: > 10 µM
HT-29 [1]
  inhibition at 10 µM: 0%

## COc1ccc(/C=C\c2cc(OC)c(OC)c(OC)c2)cc1O [COMBRETASTATIN A4]
[2]
  GI50: 2 nM
K562 [3]
  GI50: 2 nM
SR [4]
  GI50: 3 nM
A549 [5]
  GI50: 16 nM
[6]
  GI50: 2 nM
NCI-H522 [7]
  GI50: 2 nM
[8]
  GI50: 221 nM
[9]
  GI50: 3 nM
[10]
  GI50: 4 nM
HT-29 [11]
  GI50: 118 nM
[12]
  GI50: 4 nM
[13]
  GI50: 8 nM
U-251 [14]
  GI50: 4 nM
SK-MEL-5 [15]
  GI50: 3 nM
[16]
  GI50: 2 nM
A498 [17]
  GI50: 6 nM
[18]
  GI50: 25 nM
[19]
  GI50: 1 nM
MDA-MB-435 [20]
  GI50: 3 nM
MCF7 [21]
  GI50: 18 nM

## COc1ccc(-c2nnc3n(C)c(=O)c4ccccc4n23)cc1
Tubulin
  IC50: > 10 µM
HT-29 [1]
  inhibition at 10 µM: 2%

## COc1cc(-c2nnc3n(C)c(=O)c4ccccc4n23)ccc1O
Tubulin
  IC50: > 10 µM
HT-29 [1]
  inhibition at 10 µM: 0%

## COc1ccc(-c2nnc3n(C)c(=O)c4ccccc4n23)cc1N
Tubulin
  IC50: > 10 µM
HT-29 [1]
  inhibition at 10 µM: 95%
[22]
  inhibition of growth at 10 µM: 100%
K562 [23]
  inhibition of growth at 10 µM: 92%
SR [24]
  inhibition of growth at 10 µM: 89%
A549 [25]
  inhibition of growth at 10 µM: 72%
[26]
  inhibition of growth at 10 µM: 83%
NCI-H522 [27]
  inhibition of growth at 10 µM: 91%
[28]
  inhibition of growth at 10 µM: 100%
[29]
  inhibition of growth at 10 µM: 76%
[30]
  inhibition of growth at 10 µM: 78%
HT-29 [31]
  inhibition of growth at 10 µM: 95%
[32]
  inhibition of growth at 10 µM: 98%
[33]
  inhibition of growth at 10 µM: 81%
U-251 [34]
  inhibition of growth at 10 µM: 81%
MDA-MB-435 [35]
  inhibition of growth at 10 µM: 100%
SK-MEL-5 [36]
  inhibition of growth at 10 µM: 86%
[37]
  inhibition of growth at 10 µM: 92%
[38]
  inhibition of growth at 10 µM: 83%
A498 [39]
  inhibition of growth at 10 µM: 80%
[40]
  inhibition of growth at 10 µM: 65%
[41]
  inhibition of growth at 10 µM: 67%
[42]
  inhibition of growth at 10 µM: 79%
MCF7 [43]
  inhibition of growth at 10 µM: 85%
MDA-MB-468 [44]
  inhibition of growth at 10 µM: 89%
K562 [3]
  GI50: 39 nM
SR [4]
  GI50: 34 nM
A549 [5]
  GI50: 1470 nM
[6]
  GI50: 48 nM
NCI-H522 [7]
  GI50: 31 nM
[8]
  GI50: 47 nM
[9]
  GI50: 57 nM
[10]
  GI50: 50 nM
HT-29 [11]
  GI50: 43 nM
[12]
  GI50: 50 nM
U-251 [14]
  GI50: 1630 nM
MDA-MB-435 [45]
  GI50: 23 nM
SK-MEL-5 [15]
  GI50: 60 nM
[16]
  GI50: 47 nM
[46]
  GI50: 65 nM
A498 [17]
  GI50: 2840 nM
[18]
  GI50: 1950 nM
[19]
  GI50: 2650 nM
[47]
  GI50: 3.09 µM
MCF7 [48]
  GI50: 43 nM
MDA-MB-468 [49]
  GI50: 2330 nM
[50]
  growth at 10 µM: 11%
MDA-MB-435 [51]
  growth at 10 µM: 44%
[52]
  growth at 10 µM: 18%

## COc1cc2c(Oc3ccc4[nH]c(C)cc4c3F)ncnc2cc1OCCCN1CCCC1 [CEDIRANIB]
HUVEC
  inhibition at 1 µM: 74%
